What was measured:
Type in all cases: in vivo
[1] = test system: Bemisia tabaci (Cotton White Fly); test: Bemisia tabaci (cotton white fly) feeding/contact activity, cotton leaf discs; conditions: foliar, 144 h, application rate 200 ppm, adult white flies, 6 days after incubation
Procedure: Bemisia tabaci (Cotton White Fly): Feeding/Contact Activity
Cotton leaf discs were placed on agar in 24-well microtiter plates and sprayed with aqueous test solutions prepared from 10,000 ppm DMSO stock solutions. After drying the leaf discs were infested with adult white flies. The samples were checked for mortality 6 days after incubation.

[2] = test system: Myzus persicae (Green Peach Aphid); test: Myzus persicae intrinsic activity, sucrose solution under Parafilm; conditions: 120 h, test rate 12 ppm, 5 days after infestation
Source text: Myzus persicae (Green Peach Aphid). Intrinsic Activity
Test compounds prepared from 10,000 ppm DMSO stock solutions were applied by pipette into 24-well microtiter plates and mixed with sucrose solution. The plates were closed with a stretched Parafilm. A plastic stencil with 24 holes was placed onto the plate and infested pea seedlings were placed directly on the Parafilm. The infested plate was closed with a gel blotting paper and another plastic stencil and then turned upside down. The samples were assessed for mortality 5 days after infestation.

[3] = test system: Myzus persicae (Green Peach Aphid); test: Myzus persicae (green peach aphid) feeding/contact activity, sunflower leaf discs; conditions: foliar, 144 h, application rate 200 ppm, aphid population of mixed ages, 6 days after infestation
Procedure: Myzus persicae (Green Peach Aphid): Feeding/Contact Activity
Sunflower leaf discs were placed onto agar in a 24-well microtiter plate and sprayed with aqueous test solutions prepared from 10,000 ppm DMSO stock solutions. After drying, the leaf discs were infested with an aphid population of mixed ages. The samples were assessed for mortality 6 days after infestation.

[4] = test system: Myzus persicae (Green Peach Aphid); test: Myzus persicae systemic activity, pea seedling roots in test solution; conditions: 144 h, test rate 24 ppm, systemic via pea seedling roots, 6 days
Procedure: Myzus persicae (Green Peach Aphid). Systemic Activity
Roots of pea seedlings infested with an aphid population of mixed ages were placed directly into aqueous test solutions prepared from 10,000 ppm DMSO stock solutions. The samples were assessed for mortality 6 days after placing seedlings into test solutions.

[5] = test system: Nilaparvata lugens (Brown Plant Hopper, metabolic neonicotinoid-resistant); test: Nilaparvata lugens (metabolic neonicotinoid-resistant) larvicide, feeding/contact, rice plants; conditions: 168 h, N3 nymphs, neonicotinoid-resistant strain, 7 days after treatment, read-out: control (mortality and growth regulation)
Procedure: Nilaparvata lugens (Brown Plant Hopper—Metabolic Neonicotinoid-Resistant), Larvicide, Feeding/Contact
Rice plants were treated with the diluted test solutions in a spray chamber. After drying, the plants were infested with ˜20 N3 nymphs. 7 days after the treatment, samples were assessed for mortality and growth regulation.

O=c1nc2n(Cc3ccc(Cl)nc3)cccc-2n1-c1ccc(C(F)(F)F)cc1 [Compound A13, 4-[(6-chloro-3-pyridyl)methyl]-1-[4-(trifluoromethyl)phenyl]imidazo[4,5-b]pyridin-2-one]
≥ 80%: mortality at 200 ppm [1] | mortality at 12 ppm [2] | mortality at 200 ppm [3]

O=c1nc2n(Cc3ccc(Cl)nc3)cccc-2n1-c1cncc(C(F)(F)F)c1 [Compound A25, 4-[(6-chloro-3-pyridyl)methyl]-1-[5-(trifluoromethyl)-3-pyridyl]imidazo[4,5-b]pyridin-2-one]
≥ 80%: mortality at 24 ppm [4] | mortality at 12 ppm [2] | mortality at 200 ppm [3]

O=c1nc2n(Cc3ccc(Cl)nc3)cccc-2n1-c1cccc(F)c1 [Compound A31, 4-[(6-chloro-3-pyridyl)methyl]-1-(3-fluorophenyl)imidazo[4,5-b]pyridin-2-one]
≥ 80%: mortality at 24 ppm [4] | mortality at 12 ppm [2] | mortality at 200 ppm [5]

O=c1nc2n(Cc3ccc(Cl)nc3)cccc-2n1-c1ccc(F)cc1 [Compound A32, 4-[(6-chloro-3-pyridyl)methyl]-1-(4-fluorophenyl)imidazo[4,5-b]pyridin-2-one]
≥ 80%: mortality at 24 ppm [4] | mortality at 12 ppm [2] | mortality at 200 ppm [3]

O=c1nc2n(Cc3ccc(Cl)nc3)cccc-2n1-c1cccnc1 [Compound A33, 4-[(6-chloro-3-pyridyl)methyl]-1-(3-pyridyl)imidazo[4,5-b]pyridin-2-one]
≥ 80%: mortality at 24 ppm [4] | mortality at 12 ppm [2] | mortality at 200 ppm [3] | mortality at 200 ppm [5]

O=c1nc2n(Cc3ccc(Cl)nc3)cccc-2n1-c1ccc(OC(F)(F)F)cc1 [Compound A39, 4-[(6-chloro-3-pyridyl)methyl]-1-[4-(trifluoromethoxy)phenyl]imidazo[4,5-b]pyridin-2-one]
≥ 80%: mortality at 200 ppm [1] | mortality at 12 ppm [2] | mortality at 200 ppm [3]

N#Cc1ccccc1-n1c2cccn(Cc3ccc(Cl)nc3)c-2nc1=O [Compound A40, 2-[4-[(6-chloro-3-pyridyl)methyl]-2-oxo-imidazo[4,5-b]pyridin-1-yl]benzonitrile]
≥ 80%: mortality at 24 ppm [4] | mortality at 12 ppm [2] | mortality at 200 ppm [3]

CC(C)n1cc(-n2c3cccn(Cc4ccc(Cl)nc4)c-3nc2=O)cn1 [Compound A62, 4-[(6-chloro-3-pyridyl)methyl]-1-(1-isopropylpyrazol-4-yl)imidazo[4,5-b]pyridin-2-one]
≥ 80%: mortality at 200 ppm [1] | mortality at 12 ppm [2] | mortality at 200 ppm [3]

O=c1nc2n(Cc3ccc(Cl)nc3)cccc-2n1-c1cncs1 [Compound A66, 4-[(6-chloro-3-pyridyl)methyl]-1-thiazol-5-yl-imidazo[4,5-b]pyridin-2-one]
≥ 80%: mortality at 200 ppm [1] | mortality at 12 ppm [2] | mortality at 200 ppm [3]

O=c1nc2n(Cc3ccc(Cl)nc3)cccc-2n1-c1ccoc1 [Compound A70, 4-[(6-chloro-3-pyridyl)methyl]-1-(3-furyl)imidazo[4,5-b]pyridin-2-one]
≥ 80%: mortality at 200 ppm [1] | mortality at 12 ppm [2]

COc1ccccc1-n1c2cccn(Cc3ccc(Cl)nc3)c-2nc1=O [Compound A82, 4-[(6-chloro-3-pyridyl)methyl]-1-(2-methoxyphenyl)imidazo[4,5-b]pyridin-2-one]
≥ 80%: mortality at 24 ppm [4] | mortality at 12 ppm [2] | mortality at 200 ppm [3]

CCCn1cc(-n2c3cccn(Cc4ccc(Cl)nc4)c-3nc2=O)cn1 [Compound A83, 4-[(6-chloro-3-pyridyl)methyl]-1-(1-propylpyrazol-4-yl)imidazo[4,5-b]pyridin-2-one]
≥ 80%: mortality at 200 ppm [1] | mortality at 24 ppm [4] | mortality at 12 ppm [2] | mortality at 200 ppm [3]

O=c1nc2n(Cc3ccc(Cl)nc3)cccc-2n1-c1cnn(CC(F)(F)F)c1 [Compound A85, 4-[(6-chloro-3-pyridyl)methyl]-1-[1-(2,2,2-trifluoroethyl)pyrazol-4-yl]imidazo[4,5-b]pyridin-2-one]
≥ 80%: mortality at 200 ppm [1] | mortality at 24 ppm [4] | mortality at 12 ppm [2] | mortality at 200 ppm [3]

Cn1nc(C(F)(F)F)cc1-n1c2cccn(Cc3ccc(Cl)nc3)c-2nc1=O [Compound A88, 4-[(6-chloro-3-pyridyl)methyl]-1-[2-methyl-5-(trifluoromethyl)pyrazol-3-yl]imidazo[4,5-b]pyridin-2-one]
≥ 80%: mortality at 200 ppm [1] | mortality at 24 ppm [4] | mortality at 12 ppm [2] | mortality at 200 ppm [3]

CC(C)n1nccc1-n1c2cccn(Cc3ccc(Cl)nc3)c-2nc1=O [Compound A94, 4-[(6-chloro-3-pyridyl)methyl]-1-(2-isopropylpyrazol-3-yl)imidazo[4,5-b]pyridin-2-one]
≥ 80%: mortality at 200 ppm [1] | mortality at 24 ppm [4] | mortality at 12 ppm [2] | mortality at 200 ppm [3]

Cn1cc(-n2c3cccn(Cc4ccc(Cl)nc4)c-3nc2=O)c(C(F)F)n1 [Compound A95, 4-[(6-chloro-3-pyridyl)methyl]-1-[3-(difluoromethyl)-1-methyl-pyrazol-4-yl]imidazo[4,5-b]pyridin-2-one]
≥ 80%: mortality at 24 ppm [4] | mortality at 12 ppm [2] | mortality at 200 ppm [3]

Cn1cc(-n2c3cccn(Cc4ccc(Cl)nc4)c-3nc2=O)c(C(F)(F)F)n1 [Compound A96, 4-[(6-chloro-3-pyridyl)methyl]-1-[1-methyl-3-(trifluoromethyl)pyrazol-4-yl]imidazo[4,5-b]pyridin-2-one]
≥ 80%: mortality at 200 ppm [1] | mortality at 24 ppm [4] | mortality at 12 ppm [2] | mortality at 200 ppm [3]

Cn1ncc(-n2c3cccn(Cc4ccc(Cl)nc4)c-3nc2=O)c1C(F)F [Compound A97, 4-[(6-chloro-3-pyridyl)methyl]-1-[5-(difluoromethyl)-1-methyl-pyrazol-4-yl]imidazo[4,5-b]pyridin-2-one]
≥ 80%: mortality at 24 ppm [4] | mortality at 12 ppm [2] | mortality at 200 ppm [3]

Cc1nn(C(F)F)cc1-n1c2cccn(Cc3ccc(Cl)nc3)c-2nc1=O [Compound A98, 4-[(6-chloro-3-pyridyl)methyl]-1-[1-(difluoromethyl)-3-methyl-pyrazol-4-yl]imidazo[4,5-b]pyridin-2-one]
≥ 80%: mortality at 24 ppm [4] | mortality at 12 ppm [2] | mortality at 200 ppm [3]

Cc1c(-n2c3cccn(Cc4ccc(Cl)nc4)c-3nc2=O)cnn1C(F)F [Compound A99, 4-[(6-chloro-3-pyridyl)methyl]-1-[1-(difluoromethyl)-5-methyl-pyrazol-4-yl]imidazo[4,5-b]pyridin-2-one]
≥ 80%: mortality at 24 ppm [4] | mortality at 12 ppm [2] | mortality at 200 ppm [3]

CCc1nn(C)cc1-n1c2cccn(Cc3ccc(Cl)nc3)c-2nc1=O [Compound A100, 4-[(6-chloro-3-pyridyl)methyl]-1-(3-ethyl-1-methyl-pyrazol-4-yl)imidazo[4,5-b]pyridin-2-one]
≥ 80%: mortality at 200 ppm [1] | mortality at 24 ppm [4] | mortality at 12 ppm [2] | mortality at 200 ppm [3]

CCn1cc(-n2c3cccn(Cc4ccc(Cl)nc4)c-3nc2=O)c(C)n1 [Compound A101, 4-[(6-chloro-3-pyridyl)methyl]-1-(1-ethyl-3-methyl-pyrazol-4-yl)imidazo[4,5-b]pyridin-2-one]
≥ 80%: mortality at 200 ppm [1] | mortality at 12 ppm [2] | mortality at 200 ppm [3]

Cc1nn(C(C)C)cc1-n1c2cccn(Cc3ccc(Cl)nc3)c-2nc1=O [Compound A102, 4-[(6-chloro-3-pyridyl)methyl]-1-(1-isopropyl-3-methyl-pyrazol-4-yl)imidazo[4,5-b]pyridin-2-one]
≥ 80%: mortality at 200 ppm [1] | mortality at 24 ppm [4] | mortality at 12 ppm [2] | mortality at 200 ppm [3]

Reference: patent publication US20210238176A1, “PESTICIDALLY-ACTIVE BICYCLIC HETEROAROMATIC COMPOUNDS” (SYNGENTA CROP PROTECTION AG, priority 2018, published 2021)
